Data on 25 compounds can be found in patent US10369166B2 (priority 2014, dated 2019).

One data set relates to Ebolavirus Sudan Gulu. The data set is classed as cell-based.
Data set [1] deals with T1, (CAT B) CATHEPSIN B (Homo sapiens, UniProt P07858). As to conditions: cited from earlier work.
A further data set has as its system Ebola virus. The note with it: in vivo.
Another data set has as its target T2, GLP (Homo sapiens, UniProt Q9H9B1).
T2 sequence (Q9H9B1 1-1298): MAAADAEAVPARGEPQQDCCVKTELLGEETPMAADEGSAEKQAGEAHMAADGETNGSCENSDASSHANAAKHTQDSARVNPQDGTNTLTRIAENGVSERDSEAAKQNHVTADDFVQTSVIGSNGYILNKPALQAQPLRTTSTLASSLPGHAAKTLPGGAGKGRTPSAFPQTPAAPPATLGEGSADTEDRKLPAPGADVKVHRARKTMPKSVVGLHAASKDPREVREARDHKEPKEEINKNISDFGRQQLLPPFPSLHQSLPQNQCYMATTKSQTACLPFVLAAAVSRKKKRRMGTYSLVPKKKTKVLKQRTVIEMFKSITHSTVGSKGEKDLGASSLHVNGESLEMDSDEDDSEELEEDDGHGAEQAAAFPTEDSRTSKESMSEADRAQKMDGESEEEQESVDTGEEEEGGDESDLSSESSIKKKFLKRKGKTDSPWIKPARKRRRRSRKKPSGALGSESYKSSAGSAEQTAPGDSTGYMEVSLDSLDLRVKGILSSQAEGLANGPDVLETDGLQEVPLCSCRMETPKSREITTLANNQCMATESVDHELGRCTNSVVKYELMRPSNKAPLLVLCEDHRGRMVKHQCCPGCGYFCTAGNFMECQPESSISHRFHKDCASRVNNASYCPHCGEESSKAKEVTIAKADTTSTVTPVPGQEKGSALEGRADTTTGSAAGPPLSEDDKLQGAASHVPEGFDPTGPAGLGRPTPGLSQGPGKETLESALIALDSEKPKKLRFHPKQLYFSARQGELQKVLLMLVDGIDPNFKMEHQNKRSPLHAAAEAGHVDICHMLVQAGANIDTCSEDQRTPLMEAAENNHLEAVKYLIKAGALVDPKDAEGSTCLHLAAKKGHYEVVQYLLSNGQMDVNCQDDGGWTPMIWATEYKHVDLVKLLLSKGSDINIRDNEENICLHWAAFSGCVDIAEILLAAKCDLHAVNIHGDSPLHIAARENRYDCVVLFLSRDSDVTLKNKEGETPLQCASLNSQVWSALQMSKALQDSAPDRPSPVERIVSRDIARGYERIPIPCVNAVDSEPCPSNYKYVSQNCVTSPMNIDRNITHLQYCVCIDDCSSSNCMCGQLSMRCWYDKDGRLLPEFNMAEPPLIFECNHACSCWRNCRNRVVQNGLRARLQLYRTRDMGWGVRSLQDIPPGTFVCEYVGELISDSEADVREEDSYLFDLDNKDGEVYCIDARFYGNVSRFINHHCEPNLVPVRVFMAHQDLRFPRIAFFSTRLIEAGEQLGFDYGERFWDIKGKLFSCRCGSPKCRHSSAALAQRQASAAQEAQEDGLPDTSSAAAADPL
As to conditions: cited from earlier work.

A further data set deals with MCF7 cells. The note with it: cited from earlier work.
The conditions of data set [2]: in vivo, cited from earlier work.
Data set [3] concerns the target T1, (CAT B) CATHEPSIN B. The data set is classed as biochemical.
The next data set addresses TNF ALPHA (Homo sapiens, UniProt P01375). The note with it: cited from earlier work.
The conditions of data set [4]: in vivo.
Another data set relates to COLLAGEN
As to conditions: cited from earlier work.

The conditions of data set [5]: in vivo; cited from earlier work.
For data set [6] the following is noted: mouse, in vivo; cited from earlier work.
The test system of a further data set is folate. As to conditions: cited from earlier work.
The next data set concerns the target S-ADENOSYL HO[…] (SAHH) (Homo sapiens, UniProt P23526). The note with it: cited from earlier work.
In data set [7] the test system is G9a/GLP-mediated dimethylation of histone 3 on lysine 9. The note with it: cited from earlier work.

By IC50 is commonly meant the concentration that gives 50% inhibition. The term EC50 denotes the concentration at which the effect is half-maximal.

Several values for one entry are separate records, joined by “and”; a condition that tells them apart may be missing. Equal entries are not always repeated. Where two headings read alike, the source gives them in different places.

Chain of TNF ALPHA (P01375 whole entry, species assumed): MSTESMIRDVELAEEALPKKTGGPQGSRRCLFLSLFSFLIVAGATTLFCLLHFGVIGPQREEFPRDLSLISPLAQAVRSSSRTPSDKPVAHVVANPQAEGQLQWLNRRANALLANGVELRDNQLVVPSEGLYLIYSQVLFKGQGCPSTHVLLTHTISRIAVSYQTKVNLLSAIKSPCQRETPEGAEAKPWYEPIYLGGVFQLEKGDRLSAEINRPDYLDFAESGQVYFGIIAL
Chain of S-ADENOSYL HO[…] (SAHH) (P23526 whole entry, species assumed): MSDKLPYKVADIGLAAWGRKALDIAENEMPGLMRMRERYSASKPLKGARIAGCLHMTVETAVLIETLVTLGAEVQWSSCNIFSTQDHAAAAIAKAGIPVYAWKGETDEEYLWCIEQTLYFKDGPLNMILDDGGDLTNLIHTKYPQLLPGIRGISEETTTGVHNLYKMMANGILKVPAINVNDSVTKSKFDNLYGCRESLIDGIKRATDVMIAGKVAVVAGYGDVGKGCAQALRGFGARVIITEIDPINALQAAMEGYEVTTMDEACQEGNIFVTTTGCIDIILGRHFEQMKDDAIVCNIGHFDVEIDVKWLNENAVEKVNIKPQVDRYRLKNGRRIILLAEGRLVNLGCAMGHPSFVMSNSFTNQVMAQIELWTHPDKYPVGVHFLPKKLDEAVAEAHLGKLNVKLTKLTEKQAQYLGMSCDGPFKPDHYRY

Turning to `CC(C)N(C[C@H]1O[C@@H](n2cnc3c(N)ncnc32)[C@H](O)[C@@H]1O)C1CC(CCc2nc3ccc(C(C)(C)C)cc3[nH]2)C1` (stereo partly drawn) [EPZ-5676], the “Molarity at last dilution” value in the data set on Ebolavirus Sudan Gulu is 0.4 µM.

In the case of `C[C@H]1[C@H](C)CC[C@]2(C(=O)O)CC[C@]3(C)C(=CC[C@@H]4[C@@]5(C)CC[C@H](O)C(C)(C)[C@@H]5CC[C@]43C)[C@H]12` [BETA-URSOLIC ACID], the IC50 at (CAT B) CATHEPSIN B [1] is 10 µM. Besides, the “residual viral load after the product (sequential)” value (“residual viral load” for short) in the data set on Ebola virus was determined as 12500 pfu/ml.

As for `COc1cc2c(NC3CCN(C4CCCCC4)CC3)nc(N3CCCN(C(C)C)CC3)nc2cc1OCCCN1CCCCC1` [UNC0646], at GLP, the IC50 is 0.015 µM. Also, the EC50 in the data set with MCF7 cells was 4.7 µM.

In the case of `CCCCN1C[C@H](O)[C@@H](O)[C@H](O)[C@H]1CO` [N-B-DEOXYNOJIRIMYCIN], in data set [2] (rat, po), the LD50 result is recorded as “LD50 1,300 mg mg kg-1”. The “Residual estimated viral load” value in the data set on Ebola virus was 10^7 pfu/ml. Also, the ED50 in the data set with α-glucosidase is listed as 32.85 mg.

`CC1(C)CC[C@]2(C(=O)O)CC[C@]3(C)C(=CC[C@@H]4[C@@]5(C)CC[C@H](O)C(C)(C)[C@@H]5CC[C@]43C)[C@@H]2C1` [BETA-OLEANOLIC ACID]: on (CAT B) CATHEPSIN B [1], the IC50 was 9 µM. Besides, the “residual viral load” value in the data set on Ebola virus came to 1875 pfu/ml. On (CAT B) CATHEPSIN B [3], this compound displayed an ED50 of 0.004 g.

Turning to `Nc1nccc2c1ncn2[C@@H]1O[C@H](CO)[C@@H](O)[C@H]1O` [CA-C3-ADO, 3-deaza-adenosine], the “Molarity at last dilution” value with Ebolavirus Sudan Gulu was 200 µM.

Compound `N[C@@H](CCS)C(=O)O` [HOMOCYSTEINE] returned an ED50 in the data set with E[…] of 0.4725 g.

For `COc1cc(/C=C/C(=O)CC(=O)/C=C/c2ccc(O)c(OC)c2)ccc1O` [CURCUMIN], in the data set on Ebola virus, the “residual viral load” value was determined as 25000 pfu/ml. The ED50 at TNF ALPHA was 29 to 60 mg/kg.

Take `O=c1c(O)c(-c2ccc(O)c(O)c2)oc2cc(O)cc(O)c12` [QUERCETIN]: in data set [2] (rat, po), the “Oral LD50” value is recorded as “(rat): 161 mg/kg”. In addition, the LD50 in data set [4] was determined as 11.27 g. For the same compound, on (CAT B) CATHEPSIN B [1], the IC50 is 11 µM. Also, in the data set on Ebola virus, the “residual viral load” value was 469 pfu/ml. The same compound registered an ED50 at (CAT B) CATHEPSIN B [3] of 0.03 g.

On to `N=C(N)NCCC[C@H](N)C(=O)O` [Arginine], for which the ED50 in the data set on COLLAGEN is listed as 2.5 g.

For `O=C1O[C@H]([C@@H](O)CO)C(O)=C1O` [VITAMIN C], the “residual viral load” value in the data set on Ebola virus is 50000 pfu/ml. Moreover, the LD50 in [5] is recorded as 11,900 mg/kg. Further, the ED50 on TNF ALPHA was 29 to 60 mg/kg.

In turn, `COc1ccc2cc3[n+](cc2c1OC)CCc1cc2c(cc1-3)OCO2` [BERBERINE] had an LD50 in data set [4] of 2072 g. Besides, the IC50 at (CAT B) CATHEPSIN B [1] was 550 µM. For the same compound, the “Oral LD50” value in data set [6] is recorded as “(mouse): >29,586 mg/kg”. In addition, the “residual viral load” value in the data set with Ebola virus was found to be 235 pfu/ml. For the same compound, at (CAT B) CATHEPSIN B [3], the ED50 came to 0.185 g/day.

`Nc1nccc2c1ncn2[C@@H]1C=C(CO)[C@@H](O)[C@H]1O` [3-DEAZANEPLANOCIN A]: in the data set with Ebola virus, the “Residual estimated viral load” value is 10^5 pfu/ml and 10^7 pfu/ml and 10^8 pfu/ml.

On to epigallocatechin-3 gallate [EGCG], for which, in the data set with Ebola virus, the “residual viral load” value is given as 106 pfu/ml. Further, the IC50 with folate is 34.8 µM.

With `NCCC[C@H](N)C(=O)O` [Ornithine], the ED50 in the data set on COLLAGEN is reported as 3.5 g.

With `NC(=O)c1ncn([C@@H]2O[C@H](CO)[C@@H](O)[C@H]2O)n1` [ribovirin], the “Molarity at last dilution” value in the data set with Ebolavirus Sudan Gulu stood at 25 µM.

As to `OC[C@H]1O[C@@H](n2cnc3c(O)ncnc32)[C@H](O)[C@@H]1O` [INOSINE], on S-ADENOSYL HO[…] (SAHH), the ED50 is 29 to 60 mg/kg.

Turning to `Nc1ncnc2c1ncn2[C@@H]1O[C@H](COP(=O)(O)O)[C@@H](O)[C@H]1O` [ADENOSINE MONOPHOSPHATE], the LD50 in data set [5] is recorded as 2900 mg/kg.

Consider `COc1cc2c(NC3CCN(CC4CCCCC4)CC3)nc(N3CCCN(C(C)C)CC3)nc2cc1OCCCN1CCCCC1` [UNC0631], for which the IC50 in [7] was 0.004 µM. Besides, the LD50 in data set [5] is on record as 2 mg/kg.

For `NC(CCSCCCCC(=O)O)C(=O)O` (stereo not drawn) [s-carboxybutyl DL homocysteine], the LD50 in [5] is on record as 500 mg/kg.

For `O=c1c(O)c(-c2ccc(O)cc2)oc2cc(O)cc(O)c12` [Kaemferol], in [5], the LD50 was 2170 mg/kg.

For the compound `CC(C)N(CCCNC(=O)Nc1ccc(C(C)(C)C)cc1)C[C@H]1O[C@@H](n2ccc3c(N)ncnc32)[C@H](O)[C@@H]1O` [EPZ004777], the “Rat LD50” value in [2] is recorded as 590 mg/kg.

Take `COc1c(C)c2c(c(O)c1C/C=C(\C)CCC(=O)O)C(=O)OC2` [Mycophenolic acid]: in the data set on Ebola virus, the “Residual estimated viral load” value was 2 × 10^6 pfu/ml.

For `[O]=[V]([O-])([O-])[O-]` [VANADATE], the “residual viral load” value in the data set with Ebola virus is reported as 212 pfu/ml.

Regarding `CC(C)N(CCCNC(=O)Nc1ccc(C(C)(C)C)cc1)C[C@H]1O[C@@H](n2cc(Br)c3c(N)ncnc32)[C@H](O)[C@@H]1O` [SGC 0946], the “Rat LD50” value in data set [2] is 590 mg/kg. In addition, in [4], the LD50 came out at 41.3 g.
